From patent US5510356A, “Bisquinolines and processes for their production and use to treat malaria” (priority 1991, dated 1996)

Assays:
[1] = system: P. falciparum clone D-6 (Sierra Leone); type: cell-based, Plasmodium falciparum; conditions: D-6 clone (resistant to mefloquine)
Protocol: (§1) In vitro activity against P. falciparum was determined using a modification of the semiautomated microdilution technique of Desjardins et al. (1979) and Milhous et al. (1985). Two P. falciparum malaria parasite clones, designated as Sierra Leone (D-6) and Indochina (W-2), are used in susceptibility testing. The former is resistant to mefloquine, and the latter to CQ, pyrimethamine, sulfadoxine, and quinine. Test compounds are dissolved in dimethylsulfoxide, and solutions serially diluted with culture media. Erythrocytes with 0.25 to 0.5% parasitemia are added to each well of a 96-well microdilution plate to give a final hematocrit of 1.5%. […] Results are reported as […] (ng/mL) values. For a complete description of this assay, see Milhous et al. (1985) and Lin et al. (1987).

[2] = system: P. falciparum clone W-2 (Indochina); type: cell-based, Plasmodium falciparum
Protocol: as §1

[3] = system: P. berghei (strain KBG 173); assay: In vivo activity against P. berghei in mice, single subcutaneous dose 3 days after infection; design: species or system Plasmodium berghei; mice; conditions: for P. berghei T-C: single dose 3 days post infection, n = 5
Protocol: In vivo activity against P. berghei was obtained against a drug-sensitive strain of P. berghei (strain KBG 173) (Osdene et al., 1967). Each test compound is administered subcutaneous to five male mice per dilution in a single subcutaneous dose 3 days after infection. Results are expressed in T-C values which indicate the mean survival time of the treated mice beyond that of the control animals; untreated mice survive on average 6.2 days. Compounds are classified as active (A) when the mean survival time of the treated mice is twice that of the controls (>6.2 days), and curative (C) when one or more test animals live 60 days post-infection. Deaths from 0-2 days post-treatment are attributed to toxicity (T).

P. falciparum = assay: In vitro activity against P. falciparum (both clones, D-6 and W-2); type: cell-based, Plasmodium falciparum
Protocol: as §1

[4] = Solubility in DMSO (noted in NMR work); conditions: 13C NMR spectra not obtainable

Question: With Clc1ccc2c(NCCNc3ccnc4cc(Cl)ccc34)ccnc2c1 [Compound 1, N^1 N^2, -Bis(7-chloroquinolin-4-y1)ethane-1,2-diamine] as the compound, how does the “P. falciparum IC50 (nM) D-6” value [1] read?
Answer: 17.3 nM

Question: And the “P. falciparum IC50 (nM) W-2” value [2]?
Answer: 27.0 nM

Question: What about the “in vivo activity against P. berghei (in words)” value [3] of the same compound?
Answer: without activity in vivo

Question: And the “P. berghei T-C” value ([3]; 40 mg/kg s.c.)?
Answer: 0.0 days

Question: And the “P. berghei T-C” value ([3]; 160 mg/kg s.c.)?
Answer: 0.4 days

Question: And the “P. berghei T-C” value ([3]; 640 mg/kg s.c.)?
Answer: 1.4 days

Question: And the “in vitro activity against P. falciparum (in words)” value (P. falciparum)?
Answer: approximately an order of magnitude less potent in vitro

Question: What about the “Resistance Index” value (P. falciparum; IC50 (W2)/IC50 (D6) ratio) of the same compound?
Answer: 1.6

Question: And the “antimalarial activity (in words)” value (P. falciparum; general statement, refers to Table I)?
Answer: antimalarial activity

Question: What about the “solubility in DMSO” value [4] of the same compound?
Answer: low solubilities in DMSO
